The record followed here is ChEMBL document CHEMBL5726498, “Substituted benzothiophenyl derivatives as GPR40 agonists for the treatment of type II diabetes” (2017).

In the test the target is Free fatty acid receptor 1 (Homo sapiens, UniProt O14842). The experiment in a line: Calcium Flux Assay: Compounds were tested in a calcium flux assay using transfected HEK293 cells stably expressing either human GPR40 or rat GPR40. Human GPR40 expressing cells were cultured in DMEM-High Glucose media supplemented with 10% fetal bovine serum, 1×L-Glutamine, 1× Penicillin/Streptomycin and 500 μg/mL G418. Rat GPR40 expressing cells were cultured in DMEM-High Glucose media supplemented with 10% fetal bovine serum and 1 μg/mL puromycin. Cells were plated into poly-D-lysine coated 384-well plates and cultured overnight in a 37° C. humidified tissue culture incubator under 5% CO2/[…] atmosphere. On the day of the experiment, the culture media was replaced with assay buffer (HBSS, 20 mM HEPES, 0.1% BSA) and the cells incubated at 37° C. for 1 h. Calcium-sensitive fluorescent dye (Fluo 8 No-Wash Calcium Dye, ABD Bioquest) was then added and the cells incubated for another 30 min at 37° C. followed by 15 min at room temperature while protected from the light. The cell plate and a plate of diluted compounds of Formula (I) were loaded into a fluorescent plate reader that added compounds onto the cells while measuring the fluorescence intensity of each well. On the technique in general: A change in cytosolic calcium serves as a functional read-out for many receptors and channels.
Sequence of Free fatty acid receptor 1 (O14842 whole entry): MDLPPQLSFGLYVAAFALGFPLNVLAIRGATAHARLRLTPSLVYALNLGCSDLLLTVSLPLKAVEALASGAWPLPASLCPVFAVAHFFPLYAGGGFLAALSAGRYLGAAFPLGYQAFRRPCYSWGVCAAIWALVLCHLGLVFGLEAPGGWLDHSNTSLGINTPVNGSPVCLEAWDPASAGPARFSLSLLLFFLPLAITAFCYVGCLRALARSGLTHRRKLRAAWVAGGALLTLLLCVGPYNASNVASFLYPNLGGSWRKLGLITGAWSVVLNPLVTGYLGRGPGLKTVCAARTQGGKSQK

One may read the EC50 as the concentration at which the effect is half-maximal. For `CC#C[C@@H](CC(=O)O)c1ccc(OCc2ccc3scc(-c4ccccc4S(C)(=O)=O)c3c2)cc1`, the EC50 stood at 0.015 µM.
